Results as given in PMC8197120, “Synthesis and Characterization of Some New Quinoxalin-2(1H)one and 2-Methyl-3H-quinazolin-4-one Derivatives Targeting the Onset and Progression of CRC with SAR, Molecular Docking, and ADMET Analyses” (Molecules, 2021).
In brackets after ≈: the same amount, converted by molar mass. Where two headings read alike, the source gives them in different places.

Columns and labels:
[1] = target: purified recombinant human LDHA protein (Homo sapiens, UniProt P00338); assay: Lactate dehydrogenase-A (LDHA) inhibition assay, NADH consumption; type: biochemical; settings: LDHA; for inhibition at 100 µg/mL: read-out: Mean Inhibition % at 100 µg/ml ± SD; for inhibition at 200 µg/mL: read-out: Mean Inhibition % at 200 µg/ml ± SD
Method: LDHA inhibition activity was investigated by measuring the amounts of consumed NADH as described by Kim and his group. Briefly, different concentrations of each compound (50, 100, 200, and 300 µg) were incubated in buffer containing 20 mM of HEPES-K+ (pH 7.2), 20 μM of NADH, 2 mM of pyruvate, and 10 ng of purified recombinant human LDHA protein for 10 min. The fluorescence of NADH, which has an excitation wavelength of 340 nm and emission wavelength of 460 nm, was detected using a Spectrofluorometer.

COX-2 = target: T1, COX-2 (Homo sapiens, UniProt P35354); assay: Cyclooxygenase (COX-2) inhibition assay (Cayman kit 701080); type: biochemical; settings: for inhibition at 100 µg/mL: read-out: Mean Inhibition % at 100 µg/ml ± SD; for inhibition at 200 µg/mL: read-out: Mean Inhibition % at 200 µg/ml ± SD
T1 construct: purchased Cayman Chemical Company 701080
T1 sequence (P35354 18-604): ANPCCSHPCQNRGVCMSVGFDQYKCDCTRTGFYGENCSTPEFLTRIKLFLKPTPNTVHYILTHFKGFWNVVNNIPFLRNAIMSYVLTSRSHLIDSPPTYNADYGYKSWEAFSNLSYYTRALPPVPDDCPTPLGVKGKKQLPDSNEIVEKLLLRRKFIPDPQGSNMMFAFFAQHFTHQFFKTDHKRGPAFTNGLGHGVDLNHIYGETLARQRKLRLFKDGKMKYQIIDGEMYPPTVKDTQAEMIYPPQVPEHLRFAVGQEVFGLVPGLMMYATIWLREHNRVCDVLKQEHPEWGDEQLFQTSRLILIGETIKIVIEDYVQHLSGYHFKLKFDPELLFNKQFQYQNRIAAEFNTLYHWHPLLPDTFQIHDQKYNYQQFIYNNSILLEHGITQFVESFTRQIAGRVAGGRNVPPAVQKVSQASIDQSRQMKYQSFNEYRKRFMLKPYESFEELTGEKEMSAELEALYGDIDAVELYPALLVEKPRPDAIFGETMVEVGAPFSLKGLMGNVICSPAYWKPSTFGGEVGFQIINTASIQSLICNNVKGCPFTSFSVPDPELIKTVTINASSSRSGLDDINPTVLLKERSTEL
Method: The compounds were resuspended in 100% DMSO at a final concentration of 10 mg/mL. […] The inhibitory activity was expressed as the inhibition percentage, which was determined by comparison with a control experiment. IC50 values were deduced from the curves.

[2] = In vitro cytotoxicity assay (LDH release); type: cell-based, human; settings: human, 200 µg/ml, 24 h
Method: (§1) The best-in-class compounds, including (4c), (4d), (6a), (6b), (6d), (6e), and (6g), which were recognized as antimicrobial and enzymatic inhibitors, were further examined for their cytotoxic effects on LoVo and HCT-116 cells of human colon cancer. This was carried out by determining the residual percentages of viable cells after being treated with the compounds at different concentrations (50, 100, 200, and 400 µg/mL), using triton X-100 (at concentration of 0.1%) in the assay medium and the assay as the positive and negative controls, respectively.
(§2) Samples were diluted in Dulbecco’s modified Eagles medium, consisting of 10% fetal bovine serum, added to cells grown and cultured for 24 h in a 5% CO2-humidified incubator at 37 °C. Then, the activity of lactate dehydrogenase released from damaged cells was determined in the collected supernatant aliquots using an ELISA end-point assay (Benchmark Plus, Bio-Rad, CA, USA). The 0.1% Triton X-100 in the assay medium and the assay medium only were used as positive and negative controls, respectively. Cell viability, expressed as a relative percentage of the OD values (at 550 nm) for compound-treated cells (final concentration of 200 µg) and the control, is shown as mean ± SD (n = 2).

[3] = system: Escherichia coli (ATCC 25922); assay: Antibacterial activity, CFU viability; type: cell-based; settings: ATCC25922, mean of two determinations, read-out: Mean IC50 ± SD
Method: (§3) Pure standard microbial isolates collected from King Khaled University Hospital were tested in this study, including Enterococcus faecalis (ATCC 29122) as Gram positive bacteria and Escherichia coli (ATCC 25922) and Bacteroides fragilis (ATCC 25285) as Gram negative bacteria. Fresh cultures of each microorganism were grown on nutrient agar plates (Oxoid, UK), of which small inoculums were suspended in 5 mL nutrient broth for bacterial suspension preparation of 0.5MacFarland. Bacterial viability was investigated by estimating the colony-forming unit (CFU) ability of the bacteria incubated at different time intervals without or with appropriate amounts of the compound that were mixed with 2 × 10^7 CFU/mL in sterile BHI broths and were incubated under shaking for 60 min at 37 °C. Samples were serially diluted into sterile BHI broths, streaked onto media agar plates, and incubated for 24 h at 37 °C. The antibacterial potency of tested compounds was expressed as the residual number of CFU with reference to the initial inoculums. […] Ampicillin (1 mg/mL) was used as a positive standard reference.

[4] = system: Enterococcus faecalis (ATCC 29122); assay: Antibacterial activity, CFU viability; type: cell-based; settings: ATCC29122, mean of two determinations, read-out: Mean IC50 ± SD
Method: as §3

[5] = system: Bacteroides fragilis (ATCC 25285); assay: Antibacterial activity, CFU viability; type: cell-based; settings: ATCC25285, mean of two determinations, read-out: Mean IC50 ± SD
Method: as §3

LoVo cells = assay: In vitro cytotoxicity assay (LDH release); type: cell-based, human
Method: as §1, §2

HCT-116 cells = assay: In vitro cytotoxicity assay (LDH release); type: cell-based, human
Method: as §1, §2

[6] = HCT-116 colon cancer cells, read-out: Mean % Cell Viability ± SD CRC-HCT-116 cells
[7] = LoVo colon cancer cells, read-out: Mean % Cell Viability ± SD CRC-LoVo cells

Compound	inhibition at 100 µg/mL [1] [%]	inhibition at 200 µg/mL [1] [%]	inhibition at 100 µg/mL (COX-2) [%]	inhibition at 200 µg/mL (COX-2) [%]	viability at 24 h, 200 µg/mL [2, 6] [%]	viability at 24 h, 200 µg/mL [2, 7] [%]	IC50 [3] [µg/mL]	IC50 [4] [µg/mL]	IC50 [5] [µg/mL]	Mean % Cell Viability, positive control (LoVo cells) [%]	Mean % Cell Viability, positive control (HCT-116 cells) [%]	IC50 [1] [µM]	IC50 (COX-2) [µM]
COc1cc2nc(C)n(N=Cc3ccc(C(=O)O)cc3)c(=O)c2cc1OC [Compound 6b, 4-[(6,7-Dimethoxy-2-methyl-4-oxo-4H-quinazolin-3-ylimino)-methyl]-benzoic acid]	32 ± 2.55	49.2	37.1 ± 2.69	69 ± 2.76	47 ± 2.83	54.2 ± 2.47	18.2 ± 0.99 (≈ 49.5 µM)	12.7 (≈ 34.4 µM)	10.3 ± 1.2 (≈ 28.2 µM)	–	–	–	–
Triton X-100 [reference compound]	–	–	–	–	–	–	–	–	–	0.00	0.00	–	–
COc1cc2nc(C)n(N=Cc3cc(OC)c(O)c([N+](=O)[O-])c3)c(=O)c2cc1OC [Compound 6a, 3-[(4-Hydroxy-3-methoxy-5-nitro-benzylidene)-amino]-6,7-dimethoxy-2-methyl-3H-quinazolin-4-one]	62.5	89.7	42.9 ± 2.97	83	91.2 ± 3.11	92.2 ± 2.62	7.9 ± 0.849 (≈ 19.1 µM)	13.8 ± 0.495 (≈ 33.4 µM)	10.9 ± 0.566 (≈ 26.3 µM)	–	–	248	293
